Source: US20120178738A1, “DIBENZO [B,F] [1,4]OXAZAPINE COMPOUNDS” (ARYX THERAPEUTICS, INC., priority 2007, published 2012)
Like-named read-outs stand apart in the source and are kept apart here.

How the values were obtained:
human 5HT2C receptors = biological target: T1, human 5HT2C receptors (Homo sapiens, UniProt P28335); assay: h5-HT2C receptor radioligand binding ([3H]Mesulergine); settings: pKi reported on a scale of 1 through 5
T1 construct: expressed in transfected cells; host or cells: human embryo kidney cells (membranes)
T1 sequence (P28335 33-458): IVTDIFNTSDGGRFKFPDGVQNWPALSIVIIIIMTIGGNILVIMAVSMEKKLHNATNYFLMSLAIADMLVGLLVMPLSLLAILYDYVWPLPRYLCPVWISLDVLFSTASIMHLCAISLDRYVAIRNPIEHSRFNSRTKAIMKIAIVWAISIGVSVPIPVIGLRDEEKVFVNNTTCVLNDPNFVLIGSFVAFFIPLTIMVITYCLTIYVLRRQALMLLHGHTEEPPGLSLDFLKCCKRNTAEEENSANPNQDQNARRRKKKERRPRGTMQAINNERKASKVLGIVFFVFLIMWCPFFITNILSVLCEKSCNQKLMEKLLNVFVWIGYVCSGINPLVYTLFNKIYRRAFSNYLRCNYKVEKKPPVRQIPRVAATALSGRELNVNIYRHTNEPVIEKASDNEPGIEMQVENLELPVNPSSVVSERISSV
Protocol: The measurements were based on the binding of a single concentration of radiolabeled ligand in the presence of various concentrations of unlabeled ligand.
(§1) Tissues (or cellular plasma membrane fractions) were incubated in the presence of radioligand at equilibrium and in the presence of a range of concentrations of the test compounds (which were non-radiolabeled), and the displaced radioligand was separated from the membranes by filtration. Nonspecific binding was assessed by measuring displacement of the radioligand in the presence of a compound known to block binding of the radioligand to the receptor. Finally, the concentration-response relationship for radioligand displacement (corrected for non-specific binding) was used to assess binding of the test compound to the receptor.

human H1 receptors = biological target: T2, human H1 receptors (Homo sapiens, UniProt P35367); assay: hH1 receptor radioligand binding ([3H]Pyrilamine); settings: pKi reported on a scale of 1 through 5
T2 construct: expressed in transfected cells; host or cells: Chinese hamster ovary cells (membranes)
T2 sequence (P35367 whole entry): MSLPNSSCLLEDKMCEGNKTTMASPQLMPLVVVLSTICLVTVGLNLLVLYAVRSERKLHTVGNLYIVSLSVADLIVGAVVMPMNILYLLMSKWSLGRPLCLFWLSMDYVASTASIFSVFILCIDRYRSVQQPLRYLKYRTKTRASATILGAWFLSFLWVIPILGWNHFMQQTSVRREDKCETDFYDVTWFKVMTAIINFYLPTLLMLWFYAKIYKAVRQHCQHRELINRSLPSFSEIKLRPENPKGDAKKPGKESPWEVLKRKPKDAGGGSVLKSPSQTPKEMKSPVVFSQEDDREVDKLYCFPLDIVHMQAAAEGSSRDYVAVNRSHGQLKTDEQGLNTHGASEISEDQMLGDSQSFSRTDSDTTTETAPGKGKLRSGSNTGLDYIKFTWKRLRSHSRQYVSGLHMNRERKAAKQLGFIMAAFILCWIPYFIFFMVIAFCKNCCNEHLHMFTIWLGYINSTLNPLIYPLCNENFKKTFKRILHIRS
Protocol: (§2) Consistent with standard competition radioligand binding assays, the methodology was based on displacement of radioligand from tissues (or cell lines) bearing the receptor of interest (Cheng, Y. and Prusoff, W. H. (1973). Biochem. Pharmacol. 22, 3099-3108). The measurements were based on the binding of a single concentration of radiolabeled ligand in the presence of various concentrations of unlabeled ligand.
as §1

human M3 receptors = biological target: T3, human M3 receptors (Homo sapiens, UniProt P20309); assay: hM3 receptor radioligand binding ([3H]NMS); settings: pKi reported on a scale of 1 through 5; read-out: M3 (pKi) (converted)
T3 construct: expressed in transfected cells; host or cells: Chinese hamster ovary cells (membranes)
T3 sequence (P20309 whole entry): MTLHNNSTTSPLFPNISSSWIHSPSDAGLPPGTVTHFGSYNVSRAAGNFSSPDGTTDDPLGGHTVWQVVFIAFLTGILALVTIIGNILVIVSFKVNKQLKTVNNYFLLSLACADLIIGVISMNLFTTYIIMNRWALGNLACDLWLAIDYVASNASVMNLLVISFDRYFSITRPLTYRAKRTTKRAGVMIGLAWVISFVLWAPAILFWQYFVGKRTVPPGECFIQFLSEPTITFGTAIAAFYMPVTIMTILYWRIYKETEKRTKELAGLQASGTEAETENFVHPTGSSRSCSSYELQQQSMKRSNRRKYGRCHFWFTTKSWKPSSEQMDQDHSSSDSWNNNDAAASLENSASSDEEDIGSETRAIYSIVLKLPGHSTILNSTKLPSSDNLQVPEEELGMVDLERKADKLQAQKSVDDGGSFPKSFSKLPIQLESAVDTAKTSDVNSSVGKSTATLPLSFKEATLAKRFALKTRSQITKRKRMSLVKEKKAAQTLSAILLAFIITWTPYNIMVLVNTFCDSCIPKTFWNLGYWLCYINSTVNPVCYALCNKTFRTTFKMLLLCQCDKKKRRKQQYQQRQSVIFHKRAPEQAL
Protocol: as §2, §1

human M1 receptors = biological target: T4, human M1 receptors (Homo sapiens, UniProt P11229); assay: hM1 receptor radioligand binding ([3H]NMS); settings: pKi reported on a scale of 1 through 5
T4 construct: expressed in transfected cells; host or cells: Chinese hamster ovary cells (membranes)
T4 sequence (P11229 1-460): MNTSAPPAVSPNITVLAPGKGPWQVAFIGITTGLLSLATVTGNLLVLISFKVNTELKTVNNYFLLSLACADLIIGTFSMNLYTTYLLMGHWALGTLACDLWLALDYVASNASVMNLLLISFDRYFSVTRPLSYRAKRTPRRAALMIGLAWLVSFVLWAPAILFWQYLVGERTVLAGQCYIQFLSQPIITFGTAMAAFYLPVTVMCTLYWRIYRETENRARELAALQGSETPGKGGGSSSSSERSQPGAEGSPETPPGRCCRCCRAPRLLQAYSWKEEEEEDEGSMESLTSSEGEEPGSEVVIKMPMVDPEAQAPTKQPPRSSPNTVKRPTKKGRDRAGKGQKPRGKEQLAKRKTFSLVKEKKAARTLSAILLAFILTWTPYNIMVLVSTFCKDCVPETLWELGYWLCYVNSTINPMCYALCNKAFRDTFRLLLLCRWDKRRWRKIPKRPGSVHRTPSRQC
Protocol: as §2, §1

5-HT2A receptor = biological target: T5, 5-HT2A receptor (Rattus norvegicus, UniProt P14842); assay: cell-based; settings: read-out: 5HT2A (pKb) (converted)
T5 construct: Eight strips of tissue (0.5 cm long) were cut. and were mounted in 10 ml organ baths; tissue Charles River Laboratories; host or cells: rat aorta strips, endothelium removed
T5 sequence (P14842 whole entry): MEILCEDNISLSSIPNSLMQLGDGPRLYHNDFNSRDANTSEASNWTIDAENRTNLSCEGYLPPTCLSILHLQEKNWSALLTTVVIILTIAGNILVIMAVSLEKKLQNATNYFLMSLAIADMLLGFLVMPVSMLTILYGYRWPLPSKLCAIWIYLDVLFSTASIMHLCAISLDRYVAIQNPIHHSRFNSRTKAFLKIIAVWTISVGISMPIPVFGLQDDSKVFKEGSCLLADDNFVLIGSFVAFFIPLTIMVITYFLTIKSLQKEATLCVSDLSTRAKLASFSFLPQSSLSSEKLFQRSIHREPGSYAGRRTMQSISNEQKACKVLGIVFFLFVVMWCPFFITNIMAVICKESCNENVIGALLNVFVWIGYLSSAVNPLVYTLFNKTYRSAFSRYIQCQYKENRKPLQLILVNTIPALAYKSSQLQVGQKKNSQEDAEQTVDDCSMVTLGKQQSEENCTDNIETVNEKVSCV
Protocol: The rat aorta (approximately 7 cm) was isolated and removed from the animal (male Sprague Dawley rat, Charles River Laboratories, Hollister, Calif.). The endothelium was removed mechanically. Eight strips of tissue (0.5 cm long) were cut. and were mounted in 10 ml organ baths kept at 37° C. with Krebs solution (composition in mM: NaCl (118.2), KCl (4.6), CaCl2 (2.5), MgSO4 (1.2), KH2PO4 (1.2), NaHCO3 (24.8) and dextrose (10.0)) that was constantly aerated with carbogen gas (95% O2/5% CO2) to obtain a pH of 7.4. The tissues were subjected to a resting tension of 2 g (3 times, 15 minutes apart, equilibrated in Krebs solution). The tissues were then washed 15 minutes later. Ten minutes later, the tissues were then exposed to 0.1 μM phenylephrine. At the maximal effect, 1 μM acetylcholine was added to confirm the absence of endothelium and then washed twice, 2 minutes apart.
Contractions were recorded as changes in tension from baseline and expressed as a percentage of the maximum response of the agonist (5-HT) concentration-effect curve. Agonist concentration-response curves were fitted using a nonlinear iterative fitting program (GraphPad Prism) using the relationship of Parker and Waud (Parker, R. B. and Waud, D. R. (1971). Pharmacological estimation of drug-receptor dissociation constants. Statistical evaluation. I. Agonists. J. Pharmacol. Exp. Ther., 177, 1-12). Agonist potency was expressed as EC50 (molar concentration of agonist producing 50% of the maximum response). Concentration-ratios (CRs) were determined from EC50 values in the presence and absence of antagonist and antagonist affinity estimates (pKB and pA2 values) were determined. All data are expressed as mean±s.e. mean.

human 5HT1A receptors = biological target: T6, human 5HT1A receptors (Homo sapiens, UniProt P08908); assay: h5-HT1A receptor radioligand binding ([3H]8OH-DPAT); settings: pKi reported on a scale of 1 through 5
T6 construct: expressed in transfected cells; host or cells: Chinese hamster ovary cells (membranes)
T6 sequence (P08908 1-422): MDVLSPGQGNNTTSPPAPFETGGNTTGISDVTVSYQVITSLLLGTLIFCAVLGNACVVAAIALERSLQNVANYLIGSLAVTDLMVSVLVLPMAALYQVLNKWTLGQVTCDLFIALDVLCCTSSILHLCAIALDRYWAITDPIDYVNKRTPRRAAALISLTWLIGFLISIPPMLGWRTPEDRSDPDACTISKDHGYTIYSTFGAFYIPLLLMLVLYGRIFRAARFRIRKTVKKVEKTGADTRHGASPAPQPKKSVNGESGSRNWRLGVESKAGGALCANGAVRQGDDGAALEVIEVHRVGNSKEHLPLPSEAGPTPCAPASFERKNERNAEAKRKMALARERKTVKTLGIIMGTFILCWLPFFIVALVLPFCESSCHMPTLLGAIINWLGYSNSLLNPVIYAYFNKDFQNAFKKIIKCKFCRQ
Protocol: as §2, §1

human 5HT7 receptors = biological target: T7, human 5HT7 receptors (Homo sapiens, UniProt P34969); assay: h5-HT7 receptor radioligand binding ([3H]5-CT); settings: pKi reported on a scale of 1 through 5; read-out: 5HT7 (pKi) (converted)
T7 construct: expressed in transfected cells; host or cells: Chinese hamster ovary cells (membranes)
T7 sequence (P34969 whole entry): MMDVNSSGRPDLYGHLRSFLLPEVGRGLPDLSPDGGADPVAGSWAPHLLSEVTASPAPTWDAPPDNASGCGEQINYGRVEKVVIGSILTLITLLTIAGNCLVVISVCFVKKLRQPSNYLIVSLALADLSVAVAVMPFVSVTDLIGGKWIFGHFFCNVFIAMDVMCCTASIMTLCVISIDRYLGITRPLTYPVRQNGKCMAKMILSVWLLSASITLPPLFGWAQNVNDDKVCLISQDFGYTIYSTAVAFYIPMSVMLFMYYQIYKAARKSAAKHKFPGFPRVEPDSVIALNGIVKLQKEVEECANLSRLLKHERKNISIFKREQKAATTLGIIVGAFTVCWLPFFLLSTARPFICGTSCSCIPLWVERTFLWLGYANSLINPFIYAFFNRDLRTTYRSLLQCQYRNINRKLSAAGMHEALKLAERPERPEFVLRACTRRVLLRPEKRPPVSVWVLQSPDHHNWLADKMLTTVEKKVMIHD
Protocol: as §2, §1

[1] = biological target: T8, human D2L dopamine receptors (Homo sapiens, UniProt P14416); assay: hD2L receptor radioligand binding ([3H]spiperone); settings: pKi reported on a scale of 1 through 5; read-out: D2L (pKi) (converted)
T8 construct: expressed in transfected cells; host or cells: insect Sf9 cells (membranes)
T8 sequence (P14416 whole entry): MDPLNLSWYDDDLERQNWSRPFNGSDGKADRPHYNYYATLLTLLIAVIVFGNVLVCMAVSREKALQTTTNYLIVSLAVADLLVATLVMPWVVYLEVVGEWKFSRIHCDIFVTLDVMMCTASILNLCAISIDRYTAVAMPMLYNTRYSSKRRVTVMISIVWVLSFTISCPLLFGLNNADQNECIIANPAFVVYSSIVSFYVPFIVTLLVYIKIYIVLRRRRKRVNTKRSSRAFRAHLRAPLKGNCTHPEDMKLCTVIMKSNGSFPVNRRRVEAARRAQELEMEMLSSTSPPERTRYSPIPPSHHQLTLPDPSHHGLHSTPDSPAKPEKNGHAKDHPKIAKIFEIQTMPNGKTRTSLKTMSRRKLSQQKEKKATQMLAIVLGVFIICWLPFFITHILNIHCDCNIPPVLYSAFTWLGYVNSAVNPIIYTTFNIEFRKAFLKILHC
Protocol: as §2, §1

[2] = biological target: T9, human D2s dopamine receptors (Homo sapiens, UniProt P14416); assay: hD2S receptor radioligand binding ([3H]spiperone); settings: pKi reported on a scale of 1 through 5
T9 construct: expressed in transfected cells; host or cells: Chinese hamster ovary cells (membranes)
T9 sequence (P14416 1-414 isoform P14416-2): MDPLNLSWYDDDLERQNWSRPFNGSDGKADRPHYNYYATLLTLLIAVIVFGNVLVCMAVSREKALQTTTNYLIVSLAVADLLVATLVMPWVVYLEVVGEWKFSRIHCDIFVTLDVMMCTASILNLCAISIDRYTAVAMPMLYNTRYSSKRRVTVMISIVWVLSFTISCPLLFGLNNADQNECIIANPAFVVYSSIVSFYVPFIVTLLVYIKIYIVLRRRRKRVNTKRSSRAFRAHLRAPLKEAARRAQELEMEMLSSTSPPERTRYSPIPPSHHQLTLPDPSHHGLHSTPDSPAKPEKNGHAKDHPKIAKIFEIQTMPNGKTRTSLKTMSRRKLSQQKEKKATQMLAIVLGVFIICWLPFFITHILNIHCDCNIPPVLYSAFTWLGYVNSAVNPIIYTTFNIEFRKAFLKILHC
Protocol: as §2, §1

SMILES	Ki (human 5HT2C receptors)	Ki (human H1 receptors)	Ki (human M3 receptors)	Ki (human M1 receptors)	Kb (5-HT2A receptor)	Ki (human 5HT1A receptors)	Ki (human 5HT7 receptors)	Ki [1]	Ki [2]	Kb (5-HT2A receptor; pKb reported on a scale of 1 through 5)
COc1ccc(NC(=O)C[C@H]2CN(C3=Nc4cc(Cl)ccc4Oc4ccccc43)CCN2)cn1 [FP, (S,E)-2-(4-(8-chlorodibenzo[b,f][1,4]oxazepin-11-yl)piperazin-2-yl)-N-(6-methoxypyridin-3-yl)acetamide]	10 to 97.7 nM	10 to 97.7 nM	> 10000 nM	5010 to 9770 nM	10 to 30.9 nM	≤ 9.77 nM	1580 to 3890 nM	631 to 2450 nM	631 to 2450 nM	
CN(CCO)C(=O)C[C@H]1CN(C2=Nc3cc(Cl)ccc3Oc3ccccc32)CCN1 [FO, (S,E)-2-(4-(8-chlorodibenzo[b,f][1,4]oxazepin-11-yl)piperazin-2-yl)-N-(2-hydroxyethyl)-N-methylacetamide]	10 to 97.7 nM	10 to 97.7 nM	> 10000 nM	2510 to 4900 nM	10 to 30.9 nM	100 to 977 nM	631 to 1550 nM	2510 to 9770 nM	2510 to 9770 nM	
O=C(C[C@H]1CN(C2=Nc3cc(Cl)ccc3Oc3ccccc32)CCN1)NCC(O)C(F)(F)F (stereo partly drawn) [GF, 2-((S)-4-((E)-8-chlorodibenzo[b,f][1,4]oxazepin-11-yl)piperazin-2-yl)-N-(3,3,3-trifluoro-2-hydroxypropyl)acetamide]	10 to 97.7 nM	10 to 97.7 nM	> 10000 nM	> 10000 nM	10 to 30.9 nM	100 to 977 nM	631 to 1550 nM	2510 to 9770 nM	631 to 2450 nM	
O=C(C[C@H]1CN(C2=Nc3cc(Cl)ccc3Oc3ccccc32)CCN1)N1CCC[C@H]1C(F)(F)F [GH, 2-((S)-4-((E)-8-chlorodibenzo[b,f][1,4]oxazepin-11-yl)piperazin-2-yl)-1-((S)-2-(trifluoromethyl)pyrrolidin-1-yl)ethanone]	100 to 977 nM	10 to 97.7 nM	7940 to 9770 nM	≤ 1230 nM	31.6 to 97.7 nM	100 to 977 nM	1580 to 3890 nM	631 to 2450 nM	2510 to 9770 nM	
CC(C)(CO)NC(=O)C[C@H]1CN(C2=Nc3cc(Cl)ccc3Oc3ccccc32)CCN1 [EY, (S,E)-2-(4-(8-chlorodibenzo[b,f][1,4]oxazepin-11-yl)piperazin-2-yl)-N-(1-hydroxy-2-methylpropan-2-yl)acetamide]	10 to 97.7 nM	10 to 97.7 nM	> 10000 nM	> 10000 nM	3.16 to 9.77 nM	10 to 97.7 nM	631 to 1550 nM	631 to 2450 nM	631 to 2450 nM	
COC(=O)CC1CN(C2=Nc3cc(C(F)(F)F)ccc3Oc3ccccc32)CCN1 (stereo not drawn) [DQ, (E)-methyl 2-(4-(8-(trifluoromethyl)dibenzo[b,f][1,4]oxazepin-11-yl)piperazin-2-yl)acetate]	100 to 977 nM	1000 to 9770 nM	> 10000 nM	> 10000 nM		100 to 977 nM	3980 to 9770 nM	2510 to 9770 nM	2510 to 9770 nM	> 100 nM
O=C(C[C@H]1CN(C2=Nc3cc(Cl)ccc3Oc3ccccc32)CCN1)N1CCOCC1 [GG, (S,E)-2-(4-(8-chlorodibenzo[b,f][1,4]oxazepin-11-yl)piperazin-2-yl)-1-morpholinoethanone]	10 to 97.7 nM	≤ 9.77 nM	7940 to 9770 nM	1260 to 2450 nM	3.16 to 9.77 nM	10 to 97.7 nM	631 to 1550 nM	2510 to 9770 nM	2510 to 9770 nM	
COCCNC(=O)C[C@H]1CN(C2=Nc3cc(Cl)ccc3Oc3ccccc32)CCN1 [FC, (S,E)-2-(4-(8-chlorodibenzo[b,f][1,4]oxazepin-11-yl)piperazin-2-yl)-N-(2-methoxyethyl)acetamide]	10 to 97.7 nM	10 to 97.7 nM	> 10000 nM	> 10000 nM	3.16 to 9.77 nM	10 to 97.7 nM	631 to 1550 nM	631 to 2450 nM	631 to 2450 nM	
